Measurements as given in PubChem BioAssay AID330 (DTP/NCI, 2004).
Values joined by “and” are separate entries in the source; they are usually repeats but may differ in a detail not shown here. Equal values may be shown once. Toxic doses and inconclusive results are not listed. Rule for the calls: active = survival T/C of 150% or more; inactive = T/C below 125% in these data.

Test system: P388 leukemia ip, CD2F1 mice, survival T/C
Assay: NCI In Vivo Anticancer Drug Screen. Data for tumor model P388 Leukemia (intraperitoneal) in CD2F1 (CDF1) mice
Conditions: endpoint: median survival time, higher = longer survival
Summary of the method: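 Mice carrying the transplanted tumor received test compound or vehicle. Survival was recorded in each group, and the value is the treated-group measurement divided by that of the vehicle-treated control group.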

[1] = dose: 50.0 mg/kg/injection, schedule: Q01DX005 (ip), vehicle: saline
[2] = dose: 100.0 mg/kg/injection, schedule: Q01DX005 (ip), vehicle: saline
[3] = dose: 200.0 mg/kg/injection, schedule: Q01DX005 (ip), vehicle: saline

Measured: T/C

COc1cccc2c1C(=O)c1c(O)c3c(c(O)c1C2=O)CC(O)(C(C)O)CC3OC1CCN(c2ccccc2)CC(C)O1 (stereo not given)
inactive: dose: 3.13 mg/kg/injection, schedule: Q04DX003 (ip), vehicle: distilled water + Tween-80 103 % of control | dose: 6.25 mg/kg/injection, schedule: Q04DX003 (ip), vehicle: distilled water + Tween-80 100 % of control | dose: 12.5 mg/kg/injection, schedule: Q04DX003 (ip), vehicle: distilled water + Tween-80 108 % of control | dose: 25.0 mg/kg/injection, schedule: Q04DX003 (ip), vehicle: distilled water + Tween-80 105 % of control | dose: 50.0 mg/kg/injection, schedule: Q04DX003 (ip), vehicle: distilled water + Tween-80 104 % of control | dose: 100.0 mg/kg/injection, schedule: Q04DX003 (ip), vehicle: distilled water + Tween-80 105 % of control | dose: 200.0 mg/kg/injection, schedule: Q04DX003 (ip), vehicle: distilled water + Tween-80 124 % of control | dose: 400.0 mg/kg/injection, schedule: Q04DX003 (ip), vehicle: distilled water + Tween-80 101 % of control

O=C(O)CC1SC(c2ccccc2Cl)N(/N=C/c2ccccc2Cl)C1=O (stereo not given)
inactive: dose: 12.5 mg/kg/injection, schedule: Q01DX009 (ip), vehicle: saline with Tween-80 102 % of control | dose: 25.0 mg/kg/injection, schedule: Q01DX009 (ip), vehicle: saline with Tween-80 98 % of control | dose: 50.0 mg/kg/injection, schedule: Q01DX009 (ip), vehicle: saline with Tween-80 99 % of control and 87 % of control

CC1(C)OC2OC(COC(=O)c3ccccc3)C(OS(C)(=O)=O)C2O1 (stereo not given)
inactive: dose: 50.0 mg/kg/injection, schedule: Q01DX005 (ip), vehicle: saline with Tween-80 103 % of control | dose: 100.0 mg/kg/injection, schedule: Q01DX005 (ip), vehicle: saline with Tween-80 100 % of control | dose: 200.0 mg/kg/injection, schedule: Q01DX005 (ip), vehicle: saline with Tween-80 102 % of control

NCCC(=O)OC1CCCc2c(O)c3c(c(O)c21)C(=O)c1ccccc1C3=O (stereo not given)
inactive: dose: 3.12 mg/kg/injection, schedule: Q01DX009 (ip), vehicle: water 103 % of control | dose: 6.25 mg/kg/injection, schedule: Q01DX009 (ip), vehicle: water 94 % of control | dose: 12.5 mg/kg/injection, schedule: Q01DX009 (ip), vehicle: water 100 % of control | dose: 25.0 mg/kg/injection, schedule: Q01DX009 (ip), vehicle: water 93 % of control | dose: 50.0 mg/kg/injection, schedule: Q01DX009 (ip), vehicle: water 93 % of control

CC(C)(C)OC(OC1(C)COC1=O)C1(C)CO1 (stereo not given)
inactive: [1] 87 % of control | dose: 50.0 mg/kg/injection, schedule: Q01DX005 (ip), vehicle: water 103 % of control | [2] 86 % of control | dose: 100.0 mg/kg/injection, schedule: Q01DX005 (ip), vehicle: water 105 % of control | [3] 97 % of control | dose: 200.0 mg/kg/injection, schedule: Q01DX005 (ip), vehicle: water 90 % of control

Cn1cc(/C=C/[N+](=O)[O-])c2ccc(OCc3ccccc3)cc21
inactive: dose: 100.0 mg/kg/injection, schedule: Q04DX003 (ip), vehicle: Klucel (hydroxypropylcellulose) (HPC) 105 % of control | dose: 200.0 mg/kg/injection, schedule: Q04DX003 (ip), vehicle: Klucel (hydroxypropylcellulose) (HPC) 95 % of control | dose: 400.0 mg/kg/injection, schedule: Q04DX003 (ip), vehicle: Klucel (hydroxypropylcellulose) (HPC) 97 % of control

O=c1c(I)cn(CC(O)CO)c(=O)n1CC(O)CO (stereo not given)
inactive: dose: 50.0 mg/kg/injection, schedule: Q01DX005 (ip), vehicle: Klucel (hydroxypropylcellulose) (HPC) 95 % of control | dose: 100.0 mg/kg/injection, schedule: Q01DX005 (ip), vehicle: Klucel (hydroxypropylcellulose) (HPC) 100 % of control | dose: 200.0 mg/kg/injection, schedule: Q01DX005 (ip), vehicle: Klucel (hydroxypropylcellulose) (HPC) 86 % of control

C/C(=C\c1c[nH]c2ccccc12)[N+](=O)[O-]
inactive: dose: 100.0 mg/kg/injection, schedule: Q01DX009 (ip), vehicle: saline with Tween-80 109 % of control | dose: 200.0 mg/kg/injection, schedule: Q01DX009 (ip), vehicle: saline with Tween-80 104 % of control | dose: 400.0 mg/kg/injection, schedule: Q01DX009 (ip), vehicle: saline with Tween-80 124 % of control

CCOC(=O)C1=NN(c2ccccc2)CC1C(=O)OC (stereo not given)
inactive: dose: 50.0 mg/kg/injection, schedule: Q04DX002 (ip), vehicle: suspension in saline 103 % of control | dose: 100.0 mg/kg/injection, schedule: Q04DX002 (ip), vehicle: suspension in saline 100 % of control | dose: 200.0 mg/kg/injection, schedule: Q04DX002 (ip), vehicle: suspension in saline 98 % of control

CC1CC(C(=O)O)N1 (stereo not given)
inactive: [1] 101 % of control | [2] 98 % of control | [3] 97 % of control
